The values below come from PubChem BioAssay (NCI).

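Assay format: 96-well plates, 48-hour exposure. GI50 is the concentration that inhibits growth by half. Definition used: TGI = concentration required for complete inhibition of growth.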

Test systems include OVCAR-4 ovarian; SF-539 CNS; A549 NSCLC; 786-0 renal; MOLT-4 leukemia; SK-MEL-28 melanoma; SK-OV-3 ovarian; NCI-H460 lung; PC-3 prostate.
Holding throughout (assay): NCI-60 cell line screen, 48 h

Consider `CC(=O)n1nnc2ccc([N+](=O)[O-])cc21`, for which the TGI in the assay on OVCAR-4 ovarian, in the assay with SF-539 CNS, in the assay on A549 NSCLC, in the assay on 786-0 renal, with MOLT-4 leukemia and with SK-MEL-28 melanoma was greater than 100 µM throughout. For the same compound, the TGI in the assay on SK-OV-3 ovarian and with NCI-H460 lung was greater than 100 µM throughout.
Turning to `Cn1nc(-c2ccccc2)c2c(/C=C/c3ccc(Cl)cc3)onc2c1=O`, the TGI with SF-539 CNS is 72.8 µM; in the assay with A549 NSCLC, 35.4 µM; in the assay on 786-0 renal it was 66 µM; in the assay with MOLT-4 leukemia, greater than 100 µM; with SK-MEL-28 melanoma, greater than 100 µM; with NCI-H460 lung it was greater than 100 µM.
Consider `COC(=O)C(=NNc1ccccc1[N+](=O)[O-])C(=O)OC`, for which the TGI in the assay on OVCAR-4 ovarian, with SF-539 CNS, in the assay on A549 NSCLC, in the assay with 786-0 renal, with MOLT-4 leukemia and in the assay on SK-MEL-28 melanoma was greater than 100 µM in each case. Besides, the TGI in the assay on SK-OV-3 ovarian and with NCI-H460 lung was greater than 100 µM in each case.
Regarding `CC12CCCC(C#N)(C1)OC2=O` (stereo unspecified), the TGI in the assay on OVCAR-4 ovarian, in the assay with SF-539 CNS, in the assay with A549 NSCLC, in the assay with 786-0 renal, with MOLT-4 leukemia and in the assay with SK-MEL-28 melanoma was greater than 100 µM each time. Also, the TGI in the assay with SK-OV-3 ovarian and in the assay on NCI-H460 lung was greater than 100 µM each time.
As for `CCc1cccc(C)c1N1C(=O)C(=O)C(c2nc3ccccc3o2)/C(=N/NC(=S)NN)C1=O` (stereo unspecified), the TGI with OVCAR-4 ovarian, in the assay on SF-539 CNS, in the assay with A549 NSCLC, in the assay with 786-0 renal, in the assay on SK-MEL-28 melanoma and in the assay with SK-OV-3 ovarian was greater than 100 µM throughout. For the same compound, in the assay with NCI-H460 lung, the TGI is greater than 100 µM.
For `O=C(CN(Cc1ccccc1)Cc1ccccc1)N1CCc2c([nH]c3ccccc23)C1c1cccnc1` (stereo unspecified), the TGI in the assay with OVCAR-4 ovarian is greater than 100 µM; in the assay with SF-539 CNS, 26.6 µM; in the assay with A549 NSCLC, greater than 100 µM; in the assay on 786-0 renal, 33.4 µM; in the assay with MOLT-4 leukemia, 6.88 µM; in the assay with SK-MEL-28 melanoma, greater than 100 µM. The results for the TGI with SK-OV-3 ovarian and in the assay on NCI-H460 lung were greater than 100 µM and 89.9 µM, respectively.
For the compound `O=C[C@]12CC=C3OC4OC5(CCCCC5)OC4[C@H]3[C@H]1C(=O)C=CC2=O` (stereo partly specified), the TGI is 31.7 µM in the assay with OVCAR-4 ovarian; 13.4 µM with SF-539 CNS; greater than 100 µM with A549 NSCLC; 21.5 µM with 786-0 renal; 15.3 µM in the assay with MOLT-4 leukemia; 96.3 µM in the assay with SK-MEL-28 melanoma. Moreover, the values for the TGI in the assay with SK-OV-3 ovarian and in the assay with NCI-H460 lung were greater than 100 µM and 58.7 µM, respectively.
On to `N.N.N.N.N.N#Cc1nn[n-]n1.[Cl-].[Co+3]`, for which the GI50 in the assay on OVCAR-4 ovarian, in the assay with SF-539 CNS, in the assay with A549 NSCLC, in the assay with 786-0 renal, in the assay with MOLT-4 leukemia and with SK-MEL-28 melanoma was greater than 100 µM throughout. In addition, the GI50 in the assay on SK-OV-3 ovarian and in the assay on NCI-H460 lung was greater than 100 µM in each case. For the same compound, the TGI with OVCAR-4 ovarian, with SF-539 CNS, in the assay with A549 NSCLC, in the assay on 786-0 renal, in the assay on MOLT-4 leukemia and with SK-MEL-28 melanoma was greater than 100 µM each time. In addition, the TGI in the assay with SK-OV-3 ovarian and in the assay with NCI-H460 lung was greater than 100 µM throughout.
Consider `C/C=C(\C)c1cc(=O)c2c(C)cc3c(c2o1)C(OC)(OC(C)=O)c1c(O)c(C2CC(C)(N(C)C)C(OC(C)=O)C(C)O2)cc(C2CC(N(C)C)C(OC(C)=O)C(C)O2)c1C3=O` (stereo unspecified), for which the TGI with A549 NSCLC was greater than 100 µM; in the assay on 786-0 renal, greater than 21.4 µM; in the assay on PC-3 prostate, greater than 100 µM; in the assay on MOLT-4 leukemia, 10.3 µM; in the assay on SK-MEL-28 melanoma, 26.1 µM; in the assay with SK-OV-3 ovarian, 8.59 µM.
As to `CC[O-].CC[O-].COc1ccc(C(=O)[CH-]C(C)=O)cc1OC.COc1ccc(C(=O)[CH-]C(C)=O)cc1OC.[Ti+4]`, the GI50 with OVCAR-4 ovarian is greater than 100 µM; in the assay on SF-539 CNS, 38.9 µM; in the assay on A549 NSCLC, greater than 100 µM; with 786-0 renal it was 48 µM; in the assay with MOLT-4 leukemia it was 35.4 µM; in the assay on SK-MEL-28 melanoma, greater than 100 µM. Further, the GI50 with NCI-H460 lung was 55.8 µM. For the same compound, the TGI in the assay on OVCAR-4 ovarian, in the assay with SF-539 CNS, in the assay on A549 NSCLC, with 786-0 renal, in the assay on MOLT-4 leukemia and in the assay on SK-MEL-28 melanoma was greater than 100 µM throughout. In addition, the TGI with NCI-H460 lung was greater than 100 µM.
`O=CC1CCC=CC1NC(=O)OCc1ccccc1` (stereo unspecified): the TGI is greater than 100 µM in the assay with OVCAR-4 ovarian; 51.9 µM in the assay with SF-539 CNS; greater than 100 µM in the assay with A549 NSCLC; greater than 100 µM with 786-0 renal; greater than 100 µM in the assay on MOLT-4 leukemia; greater than 100 µM in the assay on SK-MEL-28 melanoma. Further, the TGI in the assay with SK-OV-3 ovarian and with NCI-H460 lung was greater than 100 µM each time.
On to `Cc1ccc2nc(Sc3c([N+](=O)[O-])ncn3C)[nH]c2c1`, for which the TGI in the assay on OVCAR-4 ovarian was 79.2 µM; in the assay on SF-539 CNS, 36.4 µM; in the assay on A549 NSCLC it was greater than 100 µM; in the assay with 786-0 renal it was greater than 100 µM; in the assay with MOLT-4 leukemia, 31.1 µM; in the assay with SK-MEL-28 melanoma, greater than 100 µM. In addition, the TGI in the assay with SK-OV-3 ovarian and with NCI-H460 lung was greater than 100 µM in each case.
On to `N#CC(C#N)=Cc1ccc(C(O)P(=O)(O)O)cc1` (stereo unspecified), for which the TGI in the assay with OVCAR-4 ovarian, in the assay with SF-539 CNS, in the assay on A549 NSCLC, in the assay on 786-0 renal, in the assay on MOLT-4 leukemia and in the assay on SK-MEL-28 melanoma was greater than 100 µM in each case. For the same compound, the TGI in the assay with SK-OV-3 ovarian and in the assay on NCI-H460 lung was greater than 100 µM each time.
`O=C1c2cccc([N+](=O)[O-])c2C(=O)c2nccnc21`: the TGI with OVCAR-4 ovarian came out at 2.8 µM; with SF-539 CNS, 2.93 µM; in the assay with A549 NSCLC, 3.37 µM; with 786-0 renal, 3.2 µM; in the assay on MOLT-4 leukemia, 5.22 µM; in the assay with SK-MEL-28 melanoma, 3.01 µM. Also, the TGI in the assay with NCI-H460 lung turned out to be 2.79 µM.
`COC(=O)C(=O)C(C#N)c1cccc(Cl)c1` (stereo unspecified): the TGI in the assay with OVCAR-4 ovarian, in the assay with SF-539 CNS, in the assay on A549 NSCLC, in the assay with 786-0 renal, with MOLT-4 leukemia and in the assay with SK-MEL-28 melanoma was greater than 100 µM throughout. Moreover, the TGI in the assay with SK-OV-3 ovarian and in the assay on NCI-H460 lung was greater than 100 µM throughout.
With `CC12CC/C(=N/NC(N)=O)C3C1CCCC32`, the TGI in the assay on OVCAR-4 ovarian, in the assay on SF-539 CNS, in the assay on A549 NSCLC, in the assay with 786-0 renal, with MOLT-4 leukemia and with SK-MEL-28 melanoma was greater than 100 µM in each case. Also, the TGI in the assay with SK-OV-3 ovarian and in the assay on NCI-H460 lung was greater than 100 µM in each case.
